In EP2098226A1, “AKAP-PKA interaction inhibitors for use in the treatment of heart diseases” (Forschungsverbund Berlin e.V., priority 2008, dated 2009):
Read-outs that look alike come from different tables or passages of the source.

Tests used:
[1] = system: PKA; experiment: PKA activation in neonatal cardiomyocytes (Peptag phosphorylation); assay type: cell-based, Ratte; conditions: 300µM for 30 min, densitometry
Method: (§1) Die zeigt, dass die Substanzen 1016,1020,1021 und 1027 PKA in neonatalen Kardiomyozyten aus der Ratte aktivieren. Die Zellen wurden mit DMSO (Kontrolle), die Substanzen in 300µM Konzentrationen, oder dem Adenylylzyklaseaktivator Forskolin für 30 min inkubiert. Die Aktivierung der PKA wurde anhand der Phosphorylierung des fluoreszierenden Substratpeptids Peptag verfolgt und quantifiziert. Die semiquantitative Analyse der Peptag-Peptidephosphorylierung wurde densitometrisch vorgenommen. Angegeben sind relative densitometrische Einheiten (RDU; Mittelwerte ± SD).
as §1, with “zeigt,” for “Die zeigt,”, “Forskolin (FSK)” for “Forskolin”

[2] = biological target: Bindung von RIIα an Peptide, die aus der PKA-Bindedomäne von AKAP18δ abgeleitet sind (AKAP18δ-L314E) (Homo sapiens, UniProt P13861); experiment: Biacore: inhibition of RIIα binding to immobilised peptide AKAP18δ-L314E; conditions: for inhibition at 100 µM: read-out: maximale Hemmung (RIIα-Bindung an das Peptid AKAP18δ-L314E); for Hemmung der Interaktion (RIIα-Bindung an das Peptid AKAP18δ-L314E): preincubation of RIIα for 2 h
From the text: Für das Experiment wurden Oberflächen mit dem Peptid beschichtet, mit RIIα-Untereinheiten inkubiert und die Reaktion in Biacore-Messungen verfolgt.

[3] = system: neonatalen Kardiomyozyten aus der Ratte; experiment: cAMP level in neonatal cardiomyocytes, radioimmunoassay (RIA); assay type: cell-based; conditions: substances 50 µM in the presence of Isoproterenol 100 nM
Method: Die Substanzen 18882 (FMP-API-1), 1004, 1010, 1016, 1020, 1021 und 1023 steigern in Gegenwart des β-Adrenozeptoragonisten Isoproterenol den cAMP-Spiegel in neonatalen Kardiomyozyten aus der Ratte. Die Zellen wurden unbehandelt belassen, mit Isoproterenol allein (100 nM), mit Isoproterenol (100 nM) und den Substanzen (50 µM) oder mit Forskolin inkubiert. Der cAMP-Spiegel wurde durch Radioimmuno-Assay (RIA) bestimmt.

[4] = system: Interaktionen von regulatorischen RII-Untereineinheiten der PKA (RIIα und β) mit AKAP150, dem AKAP Yotiao und AKAP18δ; experiment: cAMP-agarose precipitation with Western blot detection of precipitated AKAPs; assay type: cell-based; conditions: neonatal cardiomyocytes; FMP-API-1 100 µM; precipitated AKAPs detected by Western blot
Method: Die Verbindungen 18882 (FMP-API-1), 1016, 1020 und 1021 (siehe Tabelle 1) hemmen die Interaktionen von regulatorischen RII-Untereineinheiten der PKA (RIIα und β) mit AKAP150, dem AKAP Yotiao und AKAP18δ. Es wurden cAMP-Agarose-Präzipitationen mit neonatalen Kardiomyozyten in Ab- oder Anwesenheit des AKAP-PKA-Interaktionshemmers FMP-API-1 (100 µM), einer Kontrollsubstanz (100 µM) und cAMP (50 mM) durchgeführt. cAMP-Agarose bindet regulatorische Untereinheiten der PKA und deren Bindungspartner, inklusive AKAP. Präzipitierte AKAP wurden mit spezifischen Antikörpern mittels Western Blot detektiert.

[5] = system: kultivierten adulten Kardiomyozyten; experiment: Contractility of cultured adult cardiomyocytes (Fura-2, field stimulation); assay type: cell-based; conditions: 10µM; calcium fluxes and cell shortening parameters
Method: Die Substanzen 18882 (FMP-API-1) und 1016 steigern die Kontraktilität an kultivierten adulten Kardiomyozyten (positiv inotroper Effekt). Die Zellen wurden isoliert, mit Fura-2 beladen und einer Feldstimulation ausgesetzt. Bestimmt wurden die Calciumfluxe und Zellverkürzungsparameter (cell shortening parameters) unter basalen Bedingungen und in Gegenwart von DMSO, Isoproterenol , FMP-API-1 (10µM) oder 1016 (10µM). Dargestellt sind Mittelwerte ± SEM.

[6] = system: AKAP18δ und regulatorischen RIIα- und RIIβ-Untereinheiten; experiment: Oligomerisation of AKAP18δ and RII subunits in neonatal cardiomyocytes (cAMP-agarose precipitation, Western blot); assay type: cell-based; conditions: neonatal cardiomyocytes incubated with the substances
From the text: Neonatale Kardiomyozyten wurden mit den Substanzen in den angegebenen Konzentrationen inkubiert. A. Anschließend wurde eine cAMP-Agarose-Präzipitation und ein Western Blot (WB) zur Detektion von AKAP18δ durchgeführt. Als Negativkontrolle wurde die cAMP-Agarose mit cAMP inkubiert, das die Bindung von R-Untereinheiten an die Agarose verhindert. B. Detektion von RIIβ in Lysaten von neonatalen Kardiomyozyten. C. Detektion von AKAP18δ, RIIα und RIIβ nach Inkubation mit den Substanzen.

[7] = system: Phopholamban (PLB); experiment: Phospholamban phosphorylation in neonatal cardiomyocytes (Western blot); assay type: cell-based; conditions: 300 µM for 5 min; p-PLB relative to Calsequestrin
Method: Die Zellen wurden mit DMSO (control), dem β-Adrenozeptoragonisten Isoproterenol (ISO) oder dem AKAP-PKA-Interaktionshemmer FMP-API-1 bzw. dessen Derivaten (300 µM) für 5 min. inkubiert, anschließend lysiert und im Western Blot wurde phosphoryliertes Phospholamban (p-PLB) mittels eines spezifischen anti-Phospholambanantikörpers detektiert. Calsequestrin, ein Protein des sarkoplasmatischen Retikulums, dient als Ladungskontrolle. Für die Quantifizierung (densitometrische Auswertung) wurde die p-PLB-Menge auf die Menge von Calsequestrin bezogen. Angegeben sind relative densitometrische Einheiten (RDU; Mittelwerte ± SEM, drei unabhängige Experimente).

[8] = biological target: RIIα (Homo sapiens, UniProt P13861); experiment: Biacore: direct binding of substances to covalently immobilised RIIα; conditions: for Bindung an RIIα: surfaces covalently coated with RIIα, incubated with the substances; for Bindungen des Peptids Ht31 und der Substanz an RIIα: RIIα surface incubated with peptide Ht31 and additionally with the substance
From the text: Biacore-Messungen zum Nachweis der Bindung der Substanz 1026 an RIIα. Es wurden Oberflächen durch kovalente Bindung mit RIIα beschichtet und mit der Substanz in den angegebenen Konzentrationen inkubiert.
Die Bindungen des Peptids Ht31 und der Substanz 1026 an RIIα sind additiv. Es wurden Oberflächen durch kovalente Bindung mit RIIα beschichtet und mit dem Peptid Ht31, das an die sog. Dimerisierungs- und docking-Domäne (DD-Domäne) von regulatorischen Untereinheiten der PKA bindet, inkubiert.
Es wurden Oberflächen durch kovalente Bindung mit RIIα beschichtet und mit den Substanzen inkubiert.

[9] = system: Rattenherzen; experiment: Langendorff isolated heart: left ventricular pressure, contraction and relaxation rates; parameters: species or system Ratte; conditions: perfused rat hearts, 10 µM, n ≥ 8 hearts per condition
Method: Bestimmung der linksventrikulären Druckentwicklung, der maximalen Kontraktions- (CR) und Relaxationsraten (RR) von Rattenherzen (in %) in einer Langendorff-Herz-Apparatur.
zeigt den Einfluss von Isoproterenol, DMSO, den Substanzen 1016, 1020 und 1021 auf die relative Zellgröße der Kardiomyozyten bezogen auf die durchschnittliche Zellgröße von Kontrollzellen (%). Kardiomyozyten wurden für 48h entweder unbehandelt belassen oder mit 15 µM Isoproterenol als Kontrollen inkubiert. Da die Kardiomyozyten zusätzlich zu der Substanz mit höchstens 0,1% DMSO inkubiert wurden, wurden Kardiomyozyten nur mit 0,1% für 48h inkubiert. Des Weiteren wurde ein möglicher Effekt von DMSO auf die Isoproterenolinduzierte Hypertrophie untersucht und die Zellen demnach mit 0,1% DMSO für 20 min präinkubiert und anschließend mit 15 µM Isoproterenol für 48 h inkubiert. Außerdem wurden Kardiomyozyten mit den Substanzen 1016, 1020 und 1021 in den Konzentrationen 3, 10, 30, 50 oder 75 µM für 48 h ohne Isoproterenol inkubiert. Des Weiteren wurden Kardiomyozyten mit den Substanzen 1016, 1020 und 1021 in den Konzentrationen 3, 10, 30, 50 oder 75 µM präinkubiert. Dann wurde Isoproterenol (15 µM) zu den Endkonzentrationen von 3, 10, 30, 50 oder 75 µM zugegeben und die Kardiomyozyten damit für 48 h inkubiert. Nach der Inkubation mit den Substanzen wurde α-Aktinin immunfluoreszenzmikroskopisch dargestellt. […]

[10] = biological target: PKA (Homo sapiens, UniProt P31323); experiment: PKA activation in vitro (Peptag substrate peptide phosphorylation); assay type: biochemical; conditions: 1 mM, catalytic subunits with or without RIIβ subunits
Method: Die Substanz 18882 (FMP-API-1) aktiviert PKA in vitro. Das Experiment wurde wie in Abb. 24 dargestellt durchgeführt. Hier wurde zusätzlich mit AKAP18δ inkubiert. Katalytische Untereinheiten der PKA wurden in An- oder Abwesenheit von regulatorischen RIIβ-Untereinheiten mit der Substanz 18882 (FMP-API-1; 1 mM) inkubiert. Die Aktivierung der PKA wurde anhand der Phosphorylierung des fluoreszierenden Substratpeptids Peptag verfolgt und quantifiziert. Die semiquantitative Analyse der Peptag-Peptidphosphorylierung wurde densitometrisch vorgenommen (Mittelwerte ± SEM). Die Gegenwart des AKAP hat einen geringen zusätzlich Einfluß auf den Effekt der Substanz 18882.

[11] = system: neonatalen Kardiomyozyten aus der Ratte; experiment: cAMP level in neonatal cardiomyocytes, ELISA-based assay; assay type: cell-based; conditions: substances 50 µM in the presence of Isoproterenol 100 nM
Method: Die Substanzen 1025, 1026, 1027 und 1028 steigern in Gegenwart des β-Adrenozeptoragonisten Isoproterenol den cAMP-Spiegel in neonatalen Kardiomyozyten aus der Ratte. Die Zellen wurden unbehandelt belassen, mit Isoproterenol allein (100 nM) oder mit Isoproterenol (100 nM) und den Substanzen (50 µM) inkubiert. Der cAMP-Spiegel wurde durch einen ELISA-basierten Assay bestimmt.

Sequence of RIIα (P13861 whole entry): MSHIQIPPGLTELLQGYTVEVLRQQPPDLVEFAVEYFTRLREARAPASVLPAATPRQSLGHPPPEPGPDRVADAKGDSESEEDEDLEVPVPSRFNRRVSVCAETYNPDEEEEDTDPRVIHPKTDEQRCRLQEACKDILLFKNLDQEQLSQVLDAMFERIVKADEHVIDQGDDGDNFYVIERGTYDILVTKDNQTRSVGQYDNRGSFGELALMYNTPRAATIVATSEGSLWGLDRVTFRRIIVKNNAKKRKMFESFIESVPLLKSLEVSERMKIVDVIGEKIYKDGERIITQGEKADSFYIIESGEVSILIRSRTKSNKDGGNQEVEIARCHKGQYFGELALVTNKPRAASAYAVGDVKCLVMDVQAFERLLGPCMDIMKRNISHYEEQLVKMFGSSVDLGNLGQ
Sequence of Bindung von RIIα an Peptide, die aus der PKA-Bindedomäne von AKAP18δ abgeleitet sind (AKAP18δ-L314E) (P13861 whole entry, stated change not applied): as the sequence (P13861 whole entry) above
Sequence of PKA (Homo sapiens, UniProt P31323) (P31323 whole entry): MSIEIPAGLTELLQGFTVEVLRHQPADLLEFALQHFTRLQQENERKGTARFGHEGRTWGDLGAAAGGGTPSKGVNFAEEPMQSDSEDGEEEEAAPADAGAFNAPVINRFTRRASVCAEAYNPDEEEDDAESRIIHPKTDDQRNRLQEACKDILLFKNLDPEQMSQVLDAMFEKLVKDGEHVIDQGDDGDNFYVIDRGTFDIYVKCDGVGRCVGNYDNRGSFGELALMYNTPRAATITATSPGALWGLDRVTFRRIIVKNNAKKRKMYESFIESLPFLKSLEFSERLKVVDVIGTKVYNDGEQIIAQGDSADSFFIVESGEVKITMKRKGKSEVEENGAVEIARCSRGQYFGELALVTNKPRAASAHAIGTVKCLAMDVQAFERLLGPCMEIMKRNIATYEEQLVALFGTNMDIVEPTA

Nc1cc(Cc2ccc(O)cc2)ccc1O [Verbindung 1016, 3-Amino-4,4'-dihydroxydiphenylmethan]
Aktivierung der PKA in neonatalen Kardiomyozyten [1]: aktivieren
inhibition at 100 µM ([2]; concentration 100 µM): ~60%
Hemmung der Interaktion (RIIα-Bindung an das Peptid AKAP18δ-L314E) [2]: ~50%
cAMP-Spiegel [3]: steigern
Hemmung der Interaktionen von regulatorischen RII-Untereineinheiten der PKA (RIIα und β) mit AKAP150, Yotiao und AKAP18δ [4]: hemmen
Kontraktilität (positiv inotroper Effekt) [5]: steigern
Oligomerisierung (Oligomers) von AKAP18δ und regulatorischen RIIα- und RIIβ-Untereinheiten [6]: induzieren die Oligomerisierung
Phosphorylierung von Phopholamban (PLB) [7]: induzieren eine Zunahme

COc1ccc(Cc2ccc(OC)c(N)c2)cc1N [Verbindung 1030]
Bindung an RIIα [8]: konzentrationsabhängigen Bindung

Nc1cc(Cc2ccc(O)c(N)c2)ccc1O [Verbindung 18882, 3,3'-Diamino-4,4'-dihydroxydiphenylmethan, reference compound]
Zunahme der gemessenen Parameter (linksventrikuläre Druckentwicklung, maximale Kontraktions- (CR) und Relaxationsraten (RR)) [9]: ~17%
cAMP-Spiegel [3]: steigern
Hemmung der Interaktionen von regulatorischen RII-Untereineinheiten der PKA (RIIα und β) mit AKAP150, Yotiao und AKAP18δ [4]: hemmen
Kontraktilität (positiv inotroper Effekt) [5]: steigern
Oligomerisierung (Oligomers) von AKAP18δ und regulatorischen RIIα- und RIIβ-Untereinheiten [6]: induzieren die Oligomerisierung
Aktivierung der PKA in vitro [10]: aktiviert
Phosphorylierung von Phopholamban (PLB) [7]: induzieren eine Zunahme

Oc1ccc(Cc2ccccc2)cc1O [Verbindung 1027, 4-Benzyl-pyrocatechol]
Aktivierung der PKA in neonatalen Kardiomyozyten [1]: aktivieren
cAMP-Spiegel [11]: steigern
Bindungen des Peptids Ht31 und der Substanz an RIIα [8]: additiv
Bindung an RIIα [8]: konzentrationsabhängigen Bindung

O=C(c1ccc(O)c(O)c1)c1ccc(O)c(O)c1 [Verbindung 1028, Bis-(3,4-dihydroxy-phenyl)-methanon]
cAMP-Spiegel [11]: steigern
Bindungen des Peptids Ht31 und der Substanz an RIIα [8]: additiv
Bindung an RIIα [8]: konzentrationsabhängigen Bindung

CC(c1ccc(O)c(N)c1)c1ccc(O)c(N)c1 [Verbindung 1020, 1,1-Bis-(3-Amino-4-hydroxyphenyl)-ethan]
Aktivierung der PKA in neonatalen Kardiomyozyten [1]: aktivieren
Hemmung der Interaktion (RIIα-Bindung an das Peptid AKAP18δ-L314E) [2]: ~50%
inhibition at 100 µM [2]: ~50%
cAMP-Spiegel [3]: steigern
Hemmung der Interaktionen von regulatorischen RII-Untereineinheiten der PKA (RIIα und β) mit AKAP150, Yotiao und AKAP18δ [4]: hemmen
Oligomerisierung (Oligomers) von AKAP18δ und regulatorischen RIIα- und RIIβ-Untereinheiten [6]: induzieren die Oligomerisierung
Phosphorylierung von Phopholamban (PLB) [7]: induzieren eine Zunahme

CC(c1ccc(O)cc1)c1ccc(O)c(N)c1 (stereo not shown) [Verbindung 1021, 3-Amino-1,1-bis-(4-hydroxyphenyl)-ethan]
Aktivierung der PKA in neonatalen Kardiomyozyten [1]: aktivieren
Hemmung der Interaktion (RIIα-Bindung an das Peptid AKAP18δ-L314E) [2]: ~40%
inhibition at 100 µM [2]: ~50%
cAMP-Spiegel [3]: steigern
Hemmung der Interaktionen von regulatorischen RII-Untereineinheiten der PKA (RIIα und β) mit AKAP150, Yotiao und AKAP18δ [4]: hemmen
Oligomerisierung (Oligomers) von AKAP18δ und regulatorischen RIIα- und RIIβ-Untereinheiten [6]: induzieren die Oligomerisierung
Phosphorylierung von Phopholamban (PLB) [7]: induzieren eine Zunahme
